Measurements from PubChem BioAssay AID1963834 (Molecular Pharmacology Branch, DTP, NCI, 2024).

System: 873145-292-R-J1-PDC complex spheroid viability
Assay: Anticancer human tumor 873145-292-R-J1-PDC patient-derived renal clear cell carcinoma cell line growth inhibition [POLQ]
Conditions: for IC50: curve of first compound; for viability, T/C: stronger effect = lower value
Protocol: Multicellular complex tumor spheroid response to Polymerase (POL) inhibitors (novobiocin, ART-558, RP6685) in combination with a variety of drugs and investigational agents in selected tumor cell lines
The POL inhibitors (novobiocin, ART-558, and RP6685) were evaluated both individually and in combination with standard of care and investigational anticancer small molecules within a complex spheroid model of solid tumors. . Complex spheroids include a stromal component modeled by human endothelial cells (HUVEC) and fibroblasts modeled by human mesenchymal stem cells (MSCs). The concentration ranges selected for each drug and investigational agent were based upon clinically achievable concentrations if the clinical Cmax of the agent was known.
Compounds. The drugs and investigational agents: novobiocin (NSC847541), ART-558 (NSC835418), RP-6685 (NSC848927), peposertib (NSC802822), ceralasertib (NSC780249), elimusertib (NSC800525), camonsertib (NSC841442), AZD-1390 (NSC803789), olaparib (NSC753686), talazoparib (NSC767125), rucaparib (NSC756644), sotorasib (NSC818433), MRTX-1133 (NSC836407), SN-38 (NSC673596), topotecan (NSC609699), epotoside (NSC141540), doxorubicin (NSC123127), gemcitabine (NSC613327), 5-fluorouracil (NSC19893), paclitaxel (NSC125973), vemurafenib (NSC761431), MSA-2 (NSC828583), SN-011 (NSC837082), adavosertib (NSC754352), prexasertib (NSC758257), carboplatin (NSC241240) and oxaliplatin (NSC266046), were obtained from the National Cancer Institute (NCI) Developmental Therapeutics Program Chemical Repository (21). The FDA-approved anticancer drug set is available from the Developmental Therapeutics Program at https://dtp.cancer.gov/organization/dscb/obtaining/. […] The stock solutions were prepared in dimethyl sulfoxide (DMSO, Sigma-Aldrich, St. Louis, MO, cat. D2650), except for the platinum compounds which were prepared in saline (Quality Biological, Gaithersburg, MD, cat. 114-055-101), at 800-fold the tested concentration and stored at -70 degrees C prior to their use. All drugs and investigational agents were tested over a range starting from a high concentration at or near the clinical Cmax and decreasing in half-log increments. If the clinical Cmax for an agent had not been determined, the highest concentration tested was 10 microM, except for SN-38, which was tested at a high concentration of 1 microM.
Cell Culture. All cells were maintained in an incubator at 37 degrees C and 5% CO2 with 95% humidity. The PDC lines were cultured according to standard operating procedures established by the NCI PDMR (https://pdmr.cancer.gov). Table 3 of the manuscript, lists the cell lines along with the number of the three cell types plated to form the mct-spheroids and media for tumor cell growth. After thawing, all PDC lines, except 997537-175-T-J1-PDC and 415267-285-R-J2-PDC, were cultured in Matrigel-coated flasks prepared with a working solution of 1X Ham's F-12 nutrient mix, without supplementation (Thermo Fisher Scientific, cat. 11765054), 100 U/mL penicillin-streptomycin (Thermo Fisher Scientific, cat. 15140122), and 2.5% Matrigel (Corning Inc., Corning, NY, cat. 354248) for the first three passages. The two PDC lines 997537-175-T-J1-PDC and 415267-285-R-J2-PDC were cultured on uncoated flasks. The 857933-349-R-J2-PDC line was cultured in 6C/Colon 1B media containing advanced DMEM/F-12 (Thermo Fisher Scientific, cat. 12634028), 10 mM HEPES (Thermo Fisher Scientific, cat. 15630080), 1X GlutaMAX supplement (Thermo Fisher Scientific, cat. 35050061), 0.1 mg/mL primocin (InvivoGen, San Diego, CA, cat. ant-pm-2), 10% defined fetal bovine serum, heat inactivated (HyClone Laboratories Inc., Logan, UT, cat. SH30070.03HI), 50% L-WRN conditioned media (ATCC, cat. CRL-3276), 1.25 mM N-Acetyl-L-cysteine (Sigma-Aldrich, cat. A9165), 10 mM nicotinamide (Sigma-Aldrich, cat. N0636), 1X B-27 supplement (Thermo Fisher Scientific, cat. 17504044), 1X N-2 supplement (Thermo Fisher Scientific, cat. […]

[1] = second compound 0.0316 µM, first compound 0.0316 µM
[2] = second compound 0.0316 µM, first compound 0.1 µM
[3] = second compound 0.0316 µM, first compound 0.316 µM
[4] = second compound 0.0316 µM, first compound 1 µM
[5] = second compound 0.0316 µM, first compound 3.16 µM
[6] = second compound 0.0316 µM, first compound 10 µM
[7] = second compound 0.1 µM, first compound 0.0316 µM
[8] = second compound 0.1 µM, first compound 0.1 µM
[9] = second compound 0.1 µM, first compound 0.316 µM
[10] = second compound 0.1 µM, first compound 1 µM
[11] = second compound 0.1 µM, first compound 3.16 µM
[12] = second compound 0.1 µM, first compound 10 µM
[13] = second compound 0.316 µM, first compound 0.0316 µM
[14] = second compound 0.316 µM, first compound 0.1 µM
[15] = second compound 0.316 µM, first compound 0.316 µM
[16] = second compound 0.316 µM, first compound 1 µM
[17] = second compound 0.316 µM, first compound 3.16 µM
[18] = second compound 0.316 µM, first compound 10 µM
[19] = second compound 1 µM, first compound 0.0316 µM
[20] = second compound 1 µM, first compound 0.1 µM
[21] = second compound 1 µM, first compound 0.316 µM
[22] = second compound 1 µM, first compound 1 µM
[23] = second compound 1 µM, first compound 3.16 µM
[24] = second compound 1 µM, first compound 10 µM
[25] = second compound 3.16 µM, first compound 0.0316 µM
[26] = second compound 3.16 µM, first compound 0.1 µM
[27] = second compound 3.16 µM, first compound 0.316 µM
[28] = second compound 3.16 µM, first compound 1 µM
[29] = second compound 3.16 µM, first compound 3.16 µM
[30] = second compound 3.16 µM, first compound 10 µM
[31] = second compound 10 µM, first compound 0.0316 µM
[32] = second compound 10 µM, first compound 0.1 µM
[33] = second compound 10 µM, first compound 0.316 µM
[34] = second compound 10 µM, first compound 1 µM
[35] = second compound 10 µM, first compound 3.16 µM
[36] = second compound 10 µM, first compound 10 µM
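Further: spheroids exposed to compounds for 7 days before viability readout.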
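Wherever viability, T/C is given: luminescence signal used as surrogate for viable cell content; 100% = DMSO vehicle control viability.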

`C=CC(=O)N1CCN(c2nc(=O)n(-c3c(C)ccnc3C(C)C)c3nc(-c4c(O)cccc4F)c(F)cc23)C(C)C1` (centres undefined) + COC1C(OC(N)=O)C(O)C(Oc2ccc3c(O)c(NC(=O)c4ccc(O)c(CC=C(C)C)c4)c(=O)oc3c2C)OC1(C)C gave an IC50 (second compound 0.0316 µM) greater than 10 µM, an IC50 (second compound 0.1 µM) greater than 10 µM and an IC50 (second compound 0.316 µM) greater than 10 µM. It also gave an IC50 (second compound 1 µM) greater than 10 µM, an IC50 (second compound 3.16 µM) greater than 10 µM and an IC50 (second compound 10 µM) greater than 10 µM. The viability, T/C [1] was 102%, the viability, T/C [2] was 97.9% and the viability, T/C [3] was 110%. The viability, T/C [4] was 114%, the viability, T/C [5] was 119% and the viability, T/C [6] was 130%. For the same compound, the viability, T/C [7] was 98.7%, the viability, T/C [8] was 99.6% and the viability, T/C [9] was 91.5%. It also gave a viability, T/C [10] of 111%, a viability, T/C [11] of 114% and a viability, T/C [12] of 114%. The viability, T/C [13] was 102%, the viability, T/C [14] was 97% and the viability, T/C [15] was 118%. The viability, T/C [16] was 113%, the viability, T/C [17] was 138% and the viability, T/C [18] was 119%. For the same compound, the viability, T/C [19] was 94.5%, the viability, T/C [20] was 94% and the viability, T/C [21] was 105%. It also gave a viability, T/C [22] of 104%, a viability, T/C [23] of 120% and a viability, T/C [24] of 126%. It also gave a viability, T/C [25] of 92.4%, a viability, T/C [26] of 92.7% and a viability, T/C [27] of 105%. For the same compound, the viability, T/C [28] was 113%, the viability, T/C [29] was 126% and the viability, T/C [30] was 121%. For the same compound, the viability, T/C [31] was 99.7%, the viability, T/C [32] was 109% and the viability, T/C [33] was 113%. For the same compound, the viability, T/C [34] was 116%, the viability, T/C [35] was 111% and the viability, T/C [36] was 125%.

`COc1cc(C2c3cc4c(cc3C(OC3OC5COC(C)OC5C(O)C3O)C3COC(=O)C23)OCO4)cc(OC)c1O` (centres undefined) + Cc1cccc(N(C)C(=O)C2C(O)CCN2c2nc(C)cc(C(F)(F)F)c2C#N)c1 was tested, and the IC50 (second compound 0.0316 µM) was 9.59 µM, the IC50 (second compound 0.1 µM) was greater than 10 µM and the IC50 (second compound 0.316 µM) was 8.71 µM. It also gave an IC50 (second compound 1 µM) of 8.98 µM, an IC50 (second compound 3.16 µM) of 9.5 µM and an IC50 (second compound 10 µM) greater than 10 µM. For the same compound, the viability, T/C [1] was 97.9%, the viability, T/C [2] was 98.3% and the viability, T/C [3] was 86.8%. The viability, T/C [4] was 81.4%, the viability, T/C [5] was 68.2% and the viability, T/C [6] was 48.9%. The viability, T/C [7] was 91.2%, the viability, T/C [8] was 94.5% and the viability, T/C [9] was 87.4%. For the same compound, the viability, T/C [10] was 90.1%, the viability, T/C [11] was 68.9% and the viability, T/C [12] was 53.5%. For the same compound, the viability, T/C [13] was 99.6%, the viability, T/C [14] was 97.1% and the viability, T/C [15] was 78.5%. It also gave a viability, T/C [16] of 86.8%, a viability, T/C [17] of 68.3% and a viability, T/C [18] of 46.2%. For the same compound, the viability, T/C [19] was 94.6%, the viability, T/C [20] was 96.7% and the viability, T/C [21] was 95%. It also gave a viability, T/C [22] of 87%, a viability, T/C [23] of 68.8% and a viability, T/C [24] of 48%. For the same compound, the viability, T/C [25] was 98.9%, the viability, T/C [26] was 82.5% and the viability, T/C [27] was 91.1%. The viability, T/C [28] was 85.8%, the viability, T/C [29] was 74% and the viability, T/C [30] was 48.4%. For the same compound, the viability, T/C [31] was 96.7%, the viability, T/C [32] was 85.3% and the viability, T/C [33] was 81.6%. The viability, T/C [34] was 72.3%, the viability, T/C [35] was 60% and the viability, T/C [36] was 57.1%.
